Results as given in PubChem BioAssay AID1421 (Emory University Molecular Libraries Screening Center, 2008).

Each compound was assayed against Prostaglandin E2 receptor EP2 subtype (Homo sapiens) (UniProt P43116) (assay: EP2 receptor modulators, dose response, cell-based, human EP2, PGE2 EC50 shift (AID 1421)). Settings: EP2-expressing cells, PGE2 EC50 shift by compound; measured here: PGE2 EC50 at 6.7 uM compound.
Chain of Prostaglandin E2 receptor EP2 subtype (Homo sapiens) (P43116 whole entry, looked up): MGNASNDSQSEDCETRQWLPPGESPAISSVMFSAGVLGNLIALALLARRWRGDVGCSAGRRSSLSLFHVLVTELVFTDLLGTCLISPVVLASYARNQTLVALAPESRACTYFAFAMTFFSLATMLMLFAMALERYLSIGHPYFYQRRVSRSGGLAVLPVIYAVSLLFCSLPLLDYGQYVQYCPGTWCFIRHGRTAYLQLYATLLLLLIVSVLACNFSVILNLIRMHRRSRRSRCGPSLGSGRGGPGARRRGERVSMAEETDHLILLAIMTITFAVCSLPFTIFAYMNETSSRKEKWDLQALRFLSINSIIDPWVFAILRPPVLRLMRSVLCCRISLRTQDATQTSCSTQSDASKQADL

Row | PGE2 EC50 with compound [nM] | SMILES
1 | 0.63 | C=CCc1cccc(/C=N/c2nc3ccccc3n2CC)c1O
2 | 0.69 | CCSc1cc(N2CCOCC2)nc(-c2ccc(Cl)cc2)n1
3 | 2.66 | C#CCn1c(S(=O)(=O)Cc2ccccc2Cl)nc(-c2ccccc2)c1-c1ccccc1
4 | 0.65 | Cc1cccc(C)c1NC(=O)CSc1nnc(Cn2nnc(-c3ccccc3)n2)n1-c1ccccc1
5 | 0.8 | COc1cc(OC)cc(-c2nc(N)n[nH]2)c1
6 | 1.02 | CCOC(=O)c1c(NC(=O)COC(=O)Cn2c(C)nc3ccccc32)sc2c1CCCC2
7 | 1.2 | COc1ccc(CCN(Cc2nc(-c3ccccc3)no2)Cc2nc(-c3ccccc3)no2)cc1OC
8 | 0.68 | CC1=CC2C(C(C)C)CCC(C)(O)C2CC1 (configuration not stated)
9 | 1.07 | CC(C)CCn1c(=O)c2ccccc2c2ccccc2c1=O
10 | 1.38 | Cc1ccccc1/C=C/c1nc2ccccc2c(=O)n1CCc1ccccc1
11 | 1.68 | FC(F)(F)c1cc(-c2ccccc2)nc2nc(N3CCOCC3)sc12
12 | 0.94 | CC(C)(C)N(Cc1ccccc1)C(=O)c1ccc(Br)o1
13 | 2.67 | CCOc1ccc(NC(=O)CSc2ncnc3c2sc2ccccc23)cc1
14 | 0.79 | CN(c1ccccc1)c1nc(N2CCCC2)nc(-n2ccnc2)n1
15 | 1.34 | CCOc1ccccc1C(=O)Nc1ccccc1-c1ccccc1
16 | 2.62 | NC(=O)c1sc2nc(N3CCCCC3)c3c(c2c1N)CCCC3
17 | 0.88 | COC(=O)c1[nH]c2ccccc2c1NS(=O)(=O)c1ccc(F)c(C)c1
18 | 1.07 | CC(C)(Oc1ccc(Cl)cc1)C(=O)N(Cc1ccccc1)c1ccccn1
19 | 0.94 | CCSc1ncnc2sc3c(c12)CCC3

Row | PGE2 EC50 with compound [nM] | SMILES
20 | 0.63 | Cc1cc(C)n(CCOc2ccc(Cl)cc2Cl)n1
21 | 2.85 | Clc1ccc(-c2ccc(/C=N/Nc3cc(N4CCOCC4)nc(N4CCOCC4)n3)o2)cc1
22 | 1.47 | O=C1CCC(C(=O)OCC(=O)N2N=C3/C(=C/c4ccccc4)CCCC3C2c2ccccc2)N1 (configuration not stated)
23 | 1.21 | CCOC(=O)c1c(-c2ccc(C)cc2)csc1NC(=O)CCN1CCOCC1
24 | 0.93 | COc1ccc(C2=Nn3c(nnc3-c3ccccc3OC)SC2)cc1OC
25 | 1.63 | O=C(OCC(=O)N1N=C(c2ccc(Cl)cc2)CC1c1ccco1)c1ccco1 (configuration not stated)
26 | 1.11 | Cc1cc([N+](=O)[O-])c(C)c(Br)c1C
27 | 0.69 | CCOc1ccc(Cc2n[nH]c(=S)n2Cc2ccccc2)cc1
28 | 2.68 | C=CCn1c(=O)c2c(nc(-c3ccc(S(=O)(=O)O)cc3)n2C)n(C)c1=O
29 | 0.84 | c1ccc(CCc2ccccc2-c2nc(-c3cccnc3)no2)cc1
30 | 0.32 | Cc1ccc(-c2cccc(C(=O)NCc3ccccc3)n2)c2ccccc12
31 | 0.8 | CCc1ccc2[nH]c(=O)c(CN(Cc3nnnn3C3CCCC3)C3CCCCC3)cc2c1
32 | 2.56 | NC(=O)COc1ccc(C23CC4CC(CC(C4)C2)C3)cc1
33 | 1.16 | OC1(c2ccc(Cl)cc2)CN(c2ccccc2)C2=[N+]1CCS2 (configuration not stated)
34 | 3.04 | CS(=O)(=O)N(Cc1ccccc1)c1ccccc1C(=O)Nc1ccccc1C(=O)NCc1ccco1
35 | 1.02 | CCOP(=O)(c1ccccc1)c1nc(-c2ccccc2Cl)oc1N1CCCCC1 (configuration not stated)
36 | 0.36 | Cc1cc(C(=O)Nc2cccc(/C=C/C(=O)O)c2)c(C)o1
37 | 0.75 | Cc1ccc(C2CC(c3cccs3)=NN2C(=O)c2ccc(Br)o2)cc1 (configuration not stated)
38 | 1.13 | COc1ccc(OC)c(/C=C/C(=O)N2CCCc3ccccc32)c1

Row | PGE2 EC50 with compound [nM] | SMILES
39 | 0.65 | O=c1cc(N2CCCCC2)c(-c2ccccc2)nn1Cc1ccccc1Cl
40 | 1.68 | Cc1ccccc1NC(=S)N(Cc1ccco1)C(C)c1cccs1 (configuration not stated)
41 | 0.95 | CCOC(=O)N1CCC(=C2c3ccc(Cl)cc3CCc3cccnc32)CC1
42 | 2.09 | Nc1[nH]n2c(=O)c3c(nc2c1N=Nc1ccccc1)CCCC3
43 | 1.26 | CCCCN1C(=O)/C(=C2\SC(N3CCCCC3)=NC2=O)c2ccccc21
44 | 1.29 | S=c1nc[nH]c2c1[nH]c1ccccc12
45 | 0.75 | Nc1cc(Cl)ccc1Oc1ccc(Cl)cc1
46 | 0.91 | O=C(O)[C@@H]1[C@H](C(=O)O)[C@@H](C(=O)O)C[C@H]1C(=O)O
47 | 1.25 | CC(C)Oc1ccc(Cc2n[nH]c(=S)n2Cc2ccccc2)cc1Cl
48 | 1.07 | CC1=NN(c2ccc(S(=O)(=O)O)cc2)C(=O)/C1=C\c1ccc(Cl)cc1
49 | 2.8 | CCCCOc1ccc(-c2c(C(=O)Nc3ccccc3)c(C)[nH]c(=S)c2C#N)cc1
50 | 1.56 | CCOc1nc(C)cc(C)c1S(=O)(=O)c1ccc(Cl)cc1
51 | 0.83 | O=C(COC(=O)c1ccccc1)Nc1ccccc1Sc1ccccc1
52 | 1.45 | N#CCSc1nc2c(c(C3CC=CCC3)c1C#N)CCC2 (configuration not stated)
53 | 1.17 | COC(=O)c1ccccc1NC(=O)c1cnn2c(C(F)F)cc(C3CC3)nc12
54 | 1.24 | CCSc1nc2c(c(=O)[nH]c(=O)n2C)n1Cc1ccc(Cl)cc1
55 | 1.28 | Cc1ccc(NC2=C(C(=O)c3ccccc3)N(C)S(=O)(=O)c3ccccc32)cc1
56 | 1.59 | COc1ccccc1C1c2[nH]c3ccccc3c2CCN1Cc1cnc(C)s1 (configuration not stated)
57 | 1.05 | COc1nc(-c2ccccc2)nnc1-c1ccccc1
